{"source": "patent US20080058280A1", "about": "“Treatment of Lymphoma Using 10-Propargyl-10-Deazaaminopterin and Gemcitabine” (SLOAN-KETTERING INSTITUTE FOR CANCER RESEARCH, priority 2004, published 2008)", "key": {"[1]": {"test_system": "human HT (diffuse large B cell) non-Hodgkin's lymphoma xenografts", "assay": "Subcutaneous lymphoma xenograft treatment", "type": "in vivo", "source_text": "(§1) In order to study the effects of PDX on lymphoma growth in vivo, subcutaneous transplantation models in NOD/SCID mice were generated using three established human lymphoma cell line representative of aggressive transformed FL (RL) and de novo extranodal DLBCL (HT; SKI-DLCL-1) histologies. Six to eight week old non-obsese diabetic severe combined immunodeficient (NOD/SCID) mice (Jackson Laboratories, Bar Harbor, Me.) were sub-lethally irradiated with […] from a gamma source and inoculated with 10×10^6 lymphoma cells via a subcutaneous route. When tumor volumes approached 100 mm^3, mice were divided into three groups, averaging 3-8 mice per group. Mice were treated with normal saline or the maximum tolerated dose (MTD) of MTX (40 mg/kg) or PDX (60 mg/kg) via an intraperitoneal route twice weekly for two weeks (four total doses). […] (Sirotnak, et al., Cancer Chemother. Pharmacol. 12: 26-30 (1984); Sirotnak et al., Cancer Chemother. Pharmacol. 42: 313-318 (1998).\n(§2) Engraftment rates in this experiment ranged from 80 to 90%. Palpable tumors formed under the skin approximately 7-10 days after inoculation and were readily measurable with calipers. Mice with subcutaneous lymphoma growths survived an average of 40-50 days after inoculation."}, "[2]": {"test_system": "human RL (transformed follicular) non-Hodgkin's lymphoma xenografts", "assay": "Subcutaneous lymphoma xenograft treatment", "type": "in vivo", "source_text": "as §1, §2"}, "[3]": {"test_system": "human SKI-DLCL-1 (de novo diffuse large B cell) non-Hodgkin's lymphoma xenografts", "assay": "Subcutaneous lymphoma xenograft treatment", "type": "in vivo", "details": "SKI-DLCL-1 xenografts", "source_text": "as §1, §2"}, "[4]": {"test_system": "subcutaneous tumors of SKI", "assay": "Preliminary combination xenograft experiment", "type": "in vivo, irradiated NOD-SCID mice", "details": "for tumor response (in words): MTX 40 mg/kg (MTD), Ara-C 300 mg/kg (MTD), or combination at one-half the MTD", "protocol": "Given the experience that SKI-DLCL-1 is the most PDX resistant line in the panel, it was selected for these in vivo synergy experiments. […] All animals were treated with the maximum tolerated dose (MTD) of each drug, save the combination studies."}, "SKI-DLBCL-1 xenografts": {"test_system": "SKI-DLBCL-1 xenografts", "assay": "TUNEL immunohistochemical staining for apoptosis in xenografts", "type": "in vivo, mice", "details": "day 21; MTX 40 mg/kg or PDX 60 mg/kg on days 0, 3, 7 and 10", "protocol": "Immunohistochemical staining for apoptosis as measured by terminal deoxynucleotide transferase-mediated nick end-labeling (TUNEL) was performed on SKI-DLBCL-1 xenografts from mice sacrificed at day 21 following initiation of antifolate therapy. Mice received four doses of saline, MTX (40 mg/kg) or PDX (60 mg/kg) on days 0, 3, 7 and 10."}, "[5]": {"details": "cited from earlier work; for weight loss at the MTD: nude mice"}, "SKI-DLBCL cells": {"test_system": "SKI-DLBCL cells", "assay": "Cell cycle analysis (propidium iodide binding)", "type": "cell-based, human", "details": "result in words", "quoted_text": "All drugs were assayed at equimolar concentrations (i.e. 1 nM). The incubation conditions were modeled after the in vitro cytotoxicity experiments. Single agent drugs or combinations of all drugs studied without schedule considerations were incubated for 72 hours, while drugs that were studied in some schedule were introduced in a 24+48 incubation scheme (i.e. drug B added 24 hours following drug A, then incubated for an additional 48 hours for a total incubation time of 72 hours). […] In addition to monitoring apoptosis, cell cycle kinetic analyses were also performed on all treated cells based the propidium iodide binding."}, "[6]": {"test_system": "HT (Diffuse large B cell)", "assay": "Growth inhibition in vitro, 5 day exposure (XTT or Alamar blue)", "type": "cell-based", "details": "Homo sapiens, 120 h, 5 day drug exposure", "protocol": "(§3) A PDX preparation prepared in accordance with Example 1 and an MTX preparation were tested for cytotoxicity against a panel of five human lymphoma cell lines. Experiments were performed as described previously. (Sirotnak et al., Cancer Chemother. Pharmacol. 12: 18-25 (1984). In brief, 2.5 to 5×10^3 cells were plated per well in 96-well flat bottom plates. Drug was added in a 0.9% NaCl solution (pH 7.0) over a range of concentrations, and cells were continuously exposed to drug for 5 days. Colorimetric dye (XTT or Alamar blue) was added for an addition period of time (XTT dye, 6 hours, Alamar blue, 24 hours). Each plate was then read on an automated plate reader at 590 nm. The percentage of inhibition was calculated as growth of cells exposed to drug divided by growth of controls (cells incubated with media only). IC50 values were determined as the drug concentrations at which cell growth was inhibited 50% as compared to controls. Experiments were repeated as lest three times. Experiments were also conducted with continuous drug exposures lasting for 3 and 4 days with results similar to the 5 day results."}, "[7]": {"test_system": "Hs445 (Hodgkin's disease)", "assay": "Growth inhibition in vitro, 5 day exposure (XTT or Alamar blue)", "type": "cell-based", "details": "Homo sapiens, Hs 445, 120 h, 5 day drug exposure", "protocol": "as §3"}, "[8]": {"test_system": "RL (Transformed follicular)", "assay": "Growth inhibition in vitro, 5 day exposure (XTT or Alamar blue)", "type": "cell-based", "details": "Homo sapiens, 120 h, 5 day drug exposure", "protocol": "as §3"}, "Raji (Burkitt's)": {"test_system": "Raji (Burkitt's)", "assay": "Growth inhibition in vitro, 5 day exposure (XTT or Alamar blue)", "type": "cell-based", "details": "Homo sapiens, 120 h, 5 day drug exposure", "protocol": "as §3"}, "[9]": {"test_system": "SKI-DLCL-1 (Diffuse large B Cell)", "assay": "Growth inhibition in vitro, 5 day exposure (XTT or Alamar blue)", "type": "cell-based", "details": "Homo sapiens, 120 h, 5 day drug exposure", "protocol": "A PDX preparation prepared in accordance with Example 1 and an MTX preparation were tested for cytotoxicity against a panel of five human lymphoma cell lines. Experiments were performed as described previously. (Sirotnak et al., Cancer Chemother. […] Colorimetric dye (XTT or Alamar blue) was added for an addition period of time (XTT dye, 6 hours, Alamar blue, 24 hours). Each plate was then read on an automated plate reader at 590 nm. The percentage of inhibition was calculated as growth of cells exposed to drug divided by growth of controls (cells incubated with media only). […] Experiments were repeated as lest three times."}, "SKI-DLBCL-1 xenograft": {"test_system": "SKI-DLBCL-1 xenograft", "assay": "Second combination xenograft experiment (FIG. 5)", "type": "in vivo, SCID beige mice", "details": "PDX and Gem at one-quarter of the MTD (15 mg/kg); MTX (60 mg/kg) alone, Ara-C (300 mg/kg) alone or both", "protocol": "The same type of test was repeated to assess the in vivo efficacy of using combination therapies. […] Schedule dependent treatment was also determined by pretreating animals with PDX or MTX followed 24 hours later with Gem or Ara-C, respectively. One cohort of animals was treated with Gem followed by PDX. In all cases, the control animals received intraperitoneal injections of normal saline.\nTumor bearing mice were assessed for weight loss and tumor volume at least twice weekly for the duration of the experiment. The data are expressed as the average tumor volume (mm3) per group as a function of time. Tumors were assessed by measuring the two largest perpendicular axes (l=length, w=width) with standard calipers. Tumor volume was calculated using the formula 4/3 πr^3 where r=(l+w)/4. Animals were sacrificed when one dimensional tumor diameter exceeded 2.0 cm, or after loss of more than 10% of their body weight in accordance with institutional guidelines. Animals were housed in standard shoe box cages in temperature and humidity constant rooms on a 12 hour light and dark cycle. Food and water were supplied ad libitum. Animals were maintained in core animal facilities under an institute approved animal protocol."}}}
{"smiles": "C#CCC(Cc1cnc2nc(N)nc(N)c2n1)c1ccc(C(=O)N[C@@H](CCC(=O)O)C(=O)O)cc1", "note": "(stereo partly shown) [PDX, 10-Propargyl-10-deazaminopterin]", "values": [{"measurement": "Complete Regression (no/total)", "setting": "[1]; MTX 40 mg/kg, PDX 60 mg/kg", "result": "8/9"}, {"measurement": "Avg Tumor Diameter (mm ± SE)", "setting": "[1]; MTX 40 mg/kg, PDX 60 mg/kg, at the nadir of tumor regression", "result": 0.5, "unit": "mm"}, {"measurement": "mice with complete tumor regression", "setting": "[1]; PDX 60 mg/kg, 8 of 9", "result": 89, "unit": "%"}, {"measurement": "Tumor Regression (%)", "setting": "[1]; PDX 60 mg/kg, average tumor regression", "result": 99, "unit": "%"}, {"measurement": "Complete Regression (no/total)", "setting": "[2]; MTX 40 mg/kg, PDX 60 mg/kg", "result": "5/9"}, {"measurement": "Tumor Regression (%)", "setting": "[2]; PDX 60 mg/kg", "result": 56, "unit": "%"}, {"measurement": "decrease of tumor volumes from initial volumes", "setting": "[2]; PDX 60 mg/kg", "result": "at least 50%"}, {"measurement": "mice with tumor regressions", "setting": "[2]; PDX 60 mg/kg, 5 of 9 mice", "result": 57, "unit": "%"}, {"measurement": "Complete Regression (no/total)", "setting": "[3]; MTX 40 mg/kg, PDX 60 mg/kg", "result": "3/10"}, {"measurement": "Tumor Regression (%)", "setting": "[3]; PDX 60 mg/kg", "result": 54, "unit": "%"}, {"measurement": "decrease of tumor volumes from initial volumes", "setting": "[3]; PDX 60 mg/kg", "result": "at least 50%"}, {"measurement": "mice with tumor regressions / complete remissions", "setting": "[3]; PDX 60 mg/kg, 3 of 10 mice", "result": 30, "unit": "%"}, {"measurement": "tumor regrowth, % of initial tumor volumes", "setting": "[4]; PDX or Gem at 60 mg/kg, by day 44", "result": 739, "unit": "%"}, {"measurement": "apoptotic cells in tumor tissue (TUNEL)", "setting": "SKI-DLBCL-1 xenografts", "result": "a high level of apoptotic cells"}, {"measurement": "maximum tolerated dose (MTD)", "setting": "[5]; intraperitoneal, twice weekly, four total doses", "result": 60, "unit": "mg/kg"}, {"measurement": "weight loss at the MTD", "setting": "[5]", "result": "less than 10%"}]}
{"smiles": "Nc1ccn([C@@H]2O[C@H](CO)[C@@H](O)C2(F)F)c(=O)n1", "note": "[Gem, 1-(2′,2′-difluoro-β-D-arabinofuranosyl) cytosine]", "values": [{"measurement": "fraction of cells in S-phase", "setting": "SKI-DLBCL cells", "result": "fewest"}]}
{"smiles": "CN(Cc1cnc2nc(N)nc(N)c2n1)c1ccc(C(=O)N[C@@H](CCC(=O)O)C(=O)O)cc1", "note": "[MTX, methotrexate]", "values": [{"measurement": "IC50", "setting": "[6]", "result": "0.035 ± 0.005", "unit": "µM"}, {"measurement": "IC50", "setting": "[7]", "result": "0.032 ± 0.0022", "unit": "µM"}, {"measurement": "IC50", "setting": "[8]", "result": "0.21 ± 0.04", "unit": "µM"}, {"measurement": "IC50", "setting": "Raji (Burkitt's)", "result": "0.016 ± 0.0008", "unit": "µM"}, {"measurement": "IC50", "setting": "[9]", "result": "0.048 ± 0.0025", "unit": "µM"}, {"measurement": "tumor response (in words)", "setting": "[1]; MTX 40 mg/kg", "result": "modest growth delay as compared to controls, there was no tumor regression"}, {"measurement": "tumor response (in words)", "setting": "[2]; MTX 40 mg/kg", "result": "small reductions in growth an no regressions"}, {"measurement": "tumor response (in words)", "setting": "[3]; MTX 40 mg/kg", "result": "small reductions in growth an no regressions"}, {"measurement": "tumor response (in words)", "setting": "[4]", "result": "modest growth delay compared to the control"}, {"measurement": "tumor response (in words)", "setting": "SKI-DLBCL-1 xenograft", "result": "sacrificed early due to excessive tumor growth"}, {"measurement": "apoptotic cells in tumor tissue (TUNEL)", "setting": "SKI-DLBCL-1 xenografts", "result": "little or no evidence of apoptotic cells"}, {"measurement": "weight loss at the MTD", "setting": "[5]", "result": "less than 10%"}]}
{"smiles": "Nc1ccn([C@@H]2O[C@H](CO)[C@@H](O)[C@@H]2O)c(=O)n1", "note": "[Ara-C, cytarabine]", "values": [{"measurement": "tumor response (in words)", "setting": "[4]", "result": "modest growth delay compared to the control"}, {"measurement": "tumor response (in words)", "setting": "SKI-DLBCL-1 xenograft", "result": "sacrificed early due to excessive tumor growth"}]}
